The record followed here is patent publication US20240327792A1, “FLUID SHEAR STRESS FOR EX VIVO ACTIVATION OF IMMUNE EFFECTOR CELLS” (Vanderbilt University, priority 2021, published 2024).

In assay [1] the test system is ZAP70 phosphorylation in Jurkat cells. Description: ZAP70 phosphorylation of Jurkat cells treated with FSS and CD3/CD28 antibodies (flow cytometry). The class given is cell-based, human. The protocol:
T cell activation by FSS: Jurkat or primary T cells were collected and resuspended at a concentration of 200,000 cells/mL in complete RPMI 1640 media. The cells were treated with or without functional grade antibodies targeting CD3 (OKT3) and CD28 (CD28.2) at a concentration of 2 μg/mL for both antibodies. The T cells were then loaded into a Brookfield cone-and-plate viscometer for FSS treatment as described previously in Mitchell & King (Mitchell, M. J. et al. New J. Phys. 2013 15:015008). In a cone-and-plate viscometer the FSS magnitude is equal in all radial locations of the viscometer. The shear rate (G) is defined by the equation:
τ=μG • where μ is the viscosity (cP) of the fluid. In these experiments, viscosity was approximately 2.5 cP. Before FSS treatment, the cone-and-plate viscometer was cleaned thoroughly with 70% ethanol. The stationary plate and the rotating cone were then incubated with 5% BSA for 1 h to block nonspecific adhesion. The cells were exposed to fluid shear stress ranging from 0.5-5.0 dyn/cm^2 for times ranging from 15 to 60 min. Primarily, the cells were treated with FSS of magnitude 5.0 dyn/cm^2 for 1 h.
Where indicated, Jurkat cells were pretreated with different compounds prior to antibody and FSS treatment. The Jurkat cells were incubated with either 5 μM Cyclosporin A (CSA), 10 μM Cytochalasin D (CCD), 10 μM GsMTx-4, or 2 mM EGTA 30 min prior to antibody and FSS treatment.
Flow cytometry antibody staining: When staining for intracellular proteins, the cells were immediately fixed with 4% paraformaldehyde for 10 min. The cells were washed thoroughly and permeabilized with 100% ice cold methanol for 10 min. After washing the cells, the cells were stained with the indicated fluorescent-tagged antibodies for 15 min in 1% BSA. The fluorescence of each sample was measured using a Gauva easyCyte 5HT flow cytometer. Gating was performed using FlowJo software. For Jurkat samples, debris was gated out and fluorescence was quantified using FlowJo software.
On the technique in general: In flow cytometry, cells or beads pass a laser one at a time.

Assay [2] concerns DC2.4 cells. Description: Intracellular cytokine staining of DC2.4 cells after 24 h (IL-6, IL-12, CCR7). The assay is classed as cell-based, murine. The protocol: (§1) Prior to prepping cells, the cone-and-plate was incubated with 5% bovine serum albumin (BSA) for 1 h in order to block non-specific binding. DC2.4 cells were lifted with trypsin, washed, and resuspended in complete RMPI media at 200,000 cells/mL. Cells were placed on a rotator for static conditions. For shear conditions, an FSS of 5.0 dyn/cm^2 was applied for 1 h using cone-and-plate flow device. Static and shear conditions were either left untreated or treated with lipopolysaccharide (LPS) potent stimulator at 10 μg/mL.
Cytokine staining: For intracellular cytokine staining (ICS), cells were plated overnight following FSS stimulation. After 24 h, cells were treated with 1:1000 GolgiPlug Transport Inhibitor to block cytokine secretion. After 4 h, cells were lifted and stained following the previously described protocol for staining intracellular proteins. IL-6, IL-12 and CCR7 were investigated in this study.
(§2) Inhibition of NF-κB: NF-κB was inhibited using caffeic acid phenethyl ester (CAPE). DC2.4 cells were lifted, washed and suspended in 200,000 cells/mL complete media. 1 μL of CAPE was added to this suspension. Cells were placed on a rotator for 30 min to allow for effective inhibition, and then added to the cone-and-plate viscometer for FSS stimulation. Following FSS, NF-κB phosphorylation analysis was performed after 1 h FSS. Following stimulation, 100,000 cells were plated overnight for cytokine analysis and 100,000 cells were immediately analyzed for NF-κB phosphorylation. NF-κB and cytokine assays were performed as described previously.

For assay [3], the system named is NF-κB phosphorylation in DC2.4 cells. Briefly: NF-κB phosphorylation in DC2.4 dendritic cells (flow cytometry). The class given is cell-based, murine. The protocol:
as §1
(§3) Flow cytometry analysis and antibody staining: Following FSS stimulation, cells were plated overnight or immediately prepped for flow cytometry analysis. For intracellular proteins such as NF-κB and AP-1, cells were fixed with 4% paraformaldehyde for 10 min. Cells were washed with HBSS and permeabilized with 100% ice cold methanol. Cells were washed again and stained for 15 min in the dark with antibodies fluorescently-labeled with PE fluorophore while suspended in 1% BSA. Guava easyCyte 5HT flow cytometer was used to measure fluorescent intensity, with FloJo software used for gating and analysis. For extracellular proteins analyzed after 24 h, cells were lifted with trypsin, washed, and incubated with fluorescently-labeled antibodies in 1% BSA and then washed a final time.
as §2
GsMTx4: GsMTx-4 (ab141871) was purchased from Abcam. […] Following FSS, cells were prepared and analyzed for NF-κB phosphorylation as previously described. […]

Assay [4] has as its system DC2.4 cells. Briefly: Costimulatory molecule expression in DC2.4 cells 24 h after stimulation. The assay is classed as cell-based, murine. As to conditions: 10 μg/mL LPS, 24 h after 1 h stimulation, regardless of shear stress. The protocol:
as §1, §3

Where [5] appears, read: after CAPE treatment and FSS, 24 h.
Setting [6] is: Jurkat cells pretreated 10 μM 30 min prior to FSS and antibody treatment, compared to FSS and antibodies without the inhibitor.

For `O=C(O)CN(CCOCCOCCN(CC(=O)O)CC(=O)O)CC(=O)O` [EGTA], the ZAP70 phosphorylation result in assay [1] (Jurkat cells pretreated 2 mM for 30 min, then FSS and antibodies, compared to FSS and antibodies only) was “significant reduction”.

As to `O=C(/C=C/c1ccc(O)c(O)c1)OCCc1ccccc1` [CAPE, caffeic acid phenethyl ester], in the assay with DC2.4 cells [2] (setting [5]), the CCR7 production entry is recorded as “strong trend in the reduction”, the IL-6 production result is “strong trend in the reduction” and the IL-12 release entry is on record as “significant reduction”. The “NF-κB phosphorylation compared to untreated cells” value in assay [3] (DC2.4 cells, CAPE 30 min before 1 h FSS) was “significant reduction”.

lipopolysaccharide [LPS]: in the assay with DC2.4 cells [4], the “CD40 costimulatory molecule expression enhanced in the presence of LPS” value was “significant” and the “CD80 costimulatory molecule expression enhanced in the presence of LPS” value is given as “trend”. In the assay on DC2.4 cells [2] (10 μg/mL LPS, 24 h after 1 h 5.0 dyn/cm^2 FSS), the “release of IL-6, IL-12 and CCR7, FSS versus FSS with LPS” value is recorded as “not a significant difference”. Further, the “NF-κB phosphorylation, FSS with LPS versus FSS without LPS” value in assay [3] (DC2.4 cells, 10 μg/mL LPS, 5.0 dyn/cm^2 FSS, 1 h) is recorded as “no significant difference”.

Turning to `C=C1[C@@H](C)[C@H]2[C@H](Cc3ccccc3)NC(=O)[C@]23[C@H](OC(C)=O)/C=C/[C@@](C)(O)C(=O)[C@@H](C)C/C=C/[C@H]3[C@@H]1O` [CCD, Cytochalasin D], in assay [1] (Jurkat cells pretreated 10 μM 30 min, antibody-only, no FSS), the “ZAP70 phosphorylation (activation), antibody-only condition” value is listed as “not significantly altering”. Besides, the ZAP70 phosphorylation entry in assay [1] (setting [6]) is recorded as “significantly reduced”.

Turning to GsMTx-4, the ZAP70 phosphorylation entry in assay [1] (setting [6]) is given as “significant reduction”. In addition, the NF-κB phosphorylation entry in assay [3] (DC2.4 cells incubated with 10 μmol GsMTx4, FSS, two replicates) is “reduced”.
